# Legend:
# Epithelial cells = test: Cellular viability with CA and CA-R mixes; type: cell-based
# Excerpt: Magnification of 10×, scale bar=100 μm, dapi in blue and factin in red.
# Cellular viability. To be applicable in biological context, the toxicity of the CA and the combined CA-R mixes were verified. Epithelial cells were cultivated in media supplemented with various CA-R mixes and acidified at pH 6. Both the cellular viability and morphology was studied over a 5 day period.
# [1] = cited from earlier work
structure (smiles),measurement,setting,value
"O=c1[nH]c(=O)[nH]c(=O)[nH]1 [CA, cyanuric acid]",toxicity in vitro,Epithelial cells,low toxicity
same,viability,"Epithelial cells; after 5 days, pH 6, CA 20 mM alone or CA 20 mM plus the named CA-R (CAC2NH2 30 mM, CAC6NH2 12 mM)",91±2%
same,pKa,[1],6.9
